{
  "source": "ChEMBL document CHEMBL3860030",
  "about": "“Design, synthesis and biological evaluation of novel macrocyclic bisbibenzyl analogues as tubulin polymerization inhibitors” (Eur J Med Chem, 2016)",
  "key": {"[1]": {"species_on_record": "Bos taurus", "test": "Induction of bovine brain tubulin polymerization at 5 uM measured every minute for 1 hr by spectrophotometric method"}, "[2]": {"test_system": "HCC1428", "test": "Cytotoxicity against human HCC1428 cells assessed as decrease in cell viability at 1 uM after 60 hrs by xCELLigence system", "type": "functional, cell-based"}, "[3]": {"species_on_record": "Bos taurus", "test": "Inhibition of bovine brain tubulin polymerization at 5 uM measured every minute for 1 hr by spectrophotometric method"}, "[4]": {"test": "cells", "settings": "Homo sapiens, HeLa, 48 h", "description": "Cytotoxicity against human HeLa cells assessed as decrease in cell viability after 48 hrs by MTT assay"}, "[5]": {"test": "Cytotoxicity against human HCC1428 cells assessed as decrease in cell viability after 48 hrs by MTT assay", "type": "functional, cell-based", "settings": "HCC1428, 48 h"}, "[6]": {"test": "Cytotoxicity against docetaxel-resistant human PC3 cells assessed as decrease in cell viability after 48 hrs by MTT assay", "type": "functional, cell-based", "settings": "PC-3, 48 h"}, "[7]": {"test": "Cytotoxicity against human HT-29 cells assessed as decrease in cell viability after 48 hrs by MTT assay", "type": "functional, cell-based", "settings": "HT-29, 48 h"}},
  "note": "Structures can show the parent of a compound that is named as a salt. Active and inactive are the calls of the source. The rule behind the calls is not given here.",
  "data": [
    {"smiles": "CC(=O)O[C@H]1C(=O)[C@@]2(C)[C@H]([C@H](OC(=O)c3ccccc3)[C@]3(O)C[C@H](OC(=O)[C@H](O)[C@@H](NC(=O)c4ccccc4)c4ccccc4)C(C)=C1C3(C)C)[C@]1(OC(C)=O)CO[C@@H]1C[C@@H]2O", "values": [
      {"measurement": "Activity", "setting": "[1]", "value": "Active"}
    ]},
    {"smiles": "CC[C@]1(O)C[C@H]2CN(CCc3c([nH]c4ccccc34)[C@@](C(=O)OC)(c3cc4c(cc3OC)N(C=O)[C@H]3[C@@](O)(C(=O)OC)[C@H](OC(C)=O)[C@]5(CC)C=CCN6CC[C@]43[C@@H]65)C2)C1", "values": [
      {"measurement": "Activity", "setting": "[2]", "value": "Active"},
      {"measurement": "inhibition", "setting": "[3]", "value": "Active"}
    ]},
    {"smiles": "COc1cccc2c1C(=O)c1c(O)c3c(c(O)c1C2=O)C[C@@](O)(C(=O)CO)C[C@@H]3O[C@H]1C[C@H](N)[C@H](O)[C@H](C)O1", "note": "[DOXORUBICIN HYDROCHLORIDE]", "values": [
      {"measurement": "IC50", "setting": "[4]", "value": 1060, "unit": "nM"},
      {"measurement": "IC50", "setting": "[5]", "value": 1560, "unit": "nM"},
      {"measurement": "IC50", "setting": "[6]", "value": 15200, "unit": "nM"},
      {"measurement": "IC50", "setting": "[7]", "value": 1460, "unit": "nM"}
    ]}
  ]
}
